Assay results: article PMC5286506 (Scientific Reports, 2017)
Like-named read-outs stand apart in the source and are kept apart here.

Assays:
HIV-1BaL = assay: HIV-1BaL-infected cervicovaginal histoculture (EpiVaginal), proviral DNA qPCR; type: cell-based; settings: day 4 post-infection, vs HEC-treated infected samples
Experimental: The EpiVaginal Tissue Model (VLC-100FT; MatTek Corporation, Ashland, MA, USA) was maintained in a 24-well plate according to the manufacturer’s instructions. […] Subsequently, the wells were challenged with HIV-1BaL (25 ng p24/tissue well) for 24 hours. Mock-infected 0.25% HEC-treated wells were used as negative control. The apical surface of each tissue was washed twice with PBS after incubation with HIV-1BaL and the same formulations were added on day 1 for 24 hours. The underlying media was changed every day, and cervicovaginal tissues were harvested on day 4 post-infection.
Total DNA was extracted and purified from the tissues using the QIAamp DNA Mini Kit (Qiagen, Hilden, Germany). Proviral DNA was quantified by real-time quantitative PCR assay using the HIV-1 DNA qPCR kit (Diatheva, Fano, Italy) based on SYBR Green chemistry as indicated by the manufacturer. […] Total DNA amount was determined by spectrophotometry. The amplification was carried out as follows: an initial cycle of denaturation step at 95 °C for 15 minutes, followed by 10 cycles of denaturation at 95 °C for 15 seconds and annealing/extension at 68 °C for 35 seconds, and a final 35 cycles of denaturation at 95 °C for 15 seconds and annealing/extension with fluorescence acquisition at 68 °C for 35 seconds. […]

[1] = test system: HIV-1BaL, HIV-1IIIb, HIV-1ADA, HIV-1RU132, HIV-1ARV-2, HIV-1CBL4; assay: Laboratory HIV-1 strains in activated PBMCs, p24 ELISA on day 7; type: cell-based; settings: 1 μM M48U1 or 5 μM tenofovir in 0.25% HEC; p < 0.05
Experimental: (§1) Mock-infected PBMCs were used as the negative control.
(§2) Figure 2 M48U1 in 0.25% HEC and tenofovir in 0.25% HEC each inhibited several laboratory strains and patient-derived HIV-1 isolates. Treatment with either 1 μM M48U1/0.25% (A) or 5 μM tenofovir/0.25% HEC (B) inhibited the replication of all tested laboratory and patient-derived strains. The HIV-1 strain tropism was determined with a sequencing analysis for the patient-derived strains. The combination of the two HIV-1 drugs inhibited HIV-1 replication independent of the HIV-1 strain tropism. HIV-1 replication was monitored by the HIV-1 p24 ELISA assay using cell culture supernatants obtained on day 7 post-infection. […] Three experiments in triplicate were performed. Analysis of antiretroviral activity of 1 μM M48U1 in 0.25% HEC (C) or 5 μM tenofovir in 0.25% HEC (D) performed in TZM-bl cells infected with pREJO.c/2864 and pTHRO.c/2626 T/F IMCs. […] Each sample was performed in triplicate and was repeated in three independent experiments.

[2] = MTT tissue viability in the EpiVaginal tissue model; type: cell-based; settings: human, EpiVaginal tissue model (cervicovaginal cultures), 20 μM tenofovir and/or 6.7 μM M48U1 in 0.25% HEC
Experimental: (§3) At the end of the incubation at 37 °C, the hydrogel was discarded and the cervicovaginal cultures were washed with PBS to remove any residual hydrogel. The cervicovaginal cultures were analyzed using the MTT kit protocol (MatTek Corporation). Cell cultures incubated with sterile distilled water were employed as a negative control. Triton X-100 (1%)-treated cultures were used as the positive control. The LDH cytotoxicity detection kit (TaKaRa Bio Inc, Japan) was used to detect LDH release from the tissues according to the manufacturer’s protocols. […] After incubation, the concentration of IL-1α in the culture medium was measured using the IL-1α ELISA Kit, according to the manufacturer’s instructions (Bender Medsystem, Wien, Austria). The concentration of IL-1α was calculated by interpolation from a standard calibration curve.

pTHRO.c/2626 T/F IMC = assay: T/F IMC infection of TZM-bl cells, luciferase readout; type: cell-based, HIV-1; settings: pTHRO.c/2626, TZM-bl cells
Experimental: (§4) TZM-bl cells (1 × 10^4/well in a 100 μL volume) in 10% D-MEM growth medium containing DEAE-dextran (Sigma) at a final concentration of 7.5 μg/mL were then added to the plate. Assay controls included replicate wells of TZM-bl cells alone in HEC 0.25% (cell control) and TZM-bl cells with virus (virus control). Following 72 hours of incubation at 37 °C, 150 μL of culture medium were removed from each well and replaced with 100 μL of Bright-Glo luciferase reagent (Promega). After 2-minutes of incubation, 150 μL of the cell lysate were transferred to a 96-well white solid plate and luminescence was measured using a Victor Light 2030 luminometer (Perkin Elmer). The percentage of infection for each T/F strain was calculated by comparing the relative luminescence units (RLU) of the virus control wells after subtraction of the cell control RLU[44].
(§5) Figure 2 M48U1 in 0.25% HEC and tenofovir in 0.25% HEC each inhibited several laboratory strains and patient-derived HIV-1 isolates. Treatment with either 1 μM M48U1/0.25% (A) or 5 μM tenofovir/0.25% HEC (B) inhibited the replication of all tested laboratory and patient-derived strains. The HIV-1 strain tropism was determined with a sequencing analysis for the patient-derived strains. […] HIV-1 replication was monitored by the HIV-1 p24 ELISA assay using cell culture supernatants obtained on day 7 post-infection. […]

in vitro = settings: human, activated PBMCs
R5-tropic HIV-1BaL = assay: HIV-1BaL infection of activated PBMCs, HIV-1 gag p24 ELISA on day 7; type: cell-based
Experimental: as §1
(§6) The antiviral activity of each drug, M48U1 and tenofovir, formulated in 0.25% HEC hydrogel was determined in an activated PBMC model. […] This mixture was added to PBMCs activated with IL-2 and PHA for a two-hour incubation at 37 °C. To evaluate the antiviral effect of M48U1, the level of HIV-1 gag p24 protein in the culture supernatant was determined at seven days post-infection using an ELISA. A significant decrease (p < 0.05; Mann Whitney test) in the HIV-1 p24 level was found (Fig. 1).
(§7) Figure 1 M48U1 and tenofovir formulated in 0.25% HEC each inhibited the replication of both R5-tropic HIV-1BaL and X4-tropic HIV-1IIIb in activated PBMCs. […] After this incubation, these solutions were used to resuspend activated PBMCs for 2 hours at 37 °C. HIV-1 replication was monitored by a HIV-1 p24 ELISA assay on the cell culture supernatants performed on day 7 post-infection. […] Three experiments in triplicate were performed.

pREJO.c/2864 T/F IMC = assay: T/F IMC infection of TZM-bl cells, luciferase readout; type: cell-based, HIV-1; settings: pREJO.c/2864, TZM-bl cells
Experimental: as §4, §5

HSV-2 = test system: HSV-2; parameters: method as in PMID 20643915, PMID 22018238, PMID 20709216; settings: CAPRISA 004 trial; cited from earlier work
EpiVaginal tissue model = settings: human, 20 μM
Experimental: as §3

X4-tropic HIV-1IIIb = assay: HIV-1IIIb infection of activated PBMCs, HIV-1 gag p24 ELISA on day 7; type: cell-based
Experimental: as §1, §6, §7

[3] = test system: HIV-1 subtype B and C isolates (HIV-1AMBR5N, HIV-1FBR5N, HIV-1SLR5N, HIV-1ARR5X4, HIV-1CSBX4); assay: Patient-derived HIV-1 isolates in activated PBMCs, p24 ELISA on day 7; type: cell-based; settings: 1 μM M48U1 (five isolates) or 5 μM tenofovir (three isolates from naïve patients) in 0.25% HEC; p < 0.05
Experimental: as §1, §2

[4] = 1 μM M48U1 or 5 μM tenofovir in 0.25% HEC
[5] = 6.7 μM M48U1 or 20 μM tenofovir in 0.25% HEC

C[C@H](Cn1cnc2c(N)ncnc21)OCP(=O)(O)O [tenofovir]
decrease in the amount of proviral HIV-1 DNA (folds of inhibition, mean) (HIV-1BaL; 0.67 μM M48U1, 2 μM tenofovir or both in 0.25% HEC): 11 fold | decrease in the amount of proviral HIV-1 DNA (folds of inhibition, mean) (HIV-1BaL; 6.7 μM M48U1, 20 μM tenofovir or both in 0.25% HEC): ~45 fold | replication of laboratory HIV-1 strains (p24 in cell supernatant) [1]: suppressed the replication of all HIV-1 strains tested | viability at 1 h, 20 μM ([2]; 1 hour): 95% | viability at 4 h, 20 μM ([2]; 4 hours): 96% | viability at 18 h, 20 μM ([2]; 18 hours): 88% | viability at 96 h, 20 μM ([2]; 96 hours): 104% | reduction in viral replication (pTHRO.c/2626 T/F IMC; [4]): 78% | reduction in viral replication (pTHRO.c/2626 T/F IMC; [5]): 93% | CC50 at 7 days (in vitro): > 20000 nM | inhibition of HIV-1BaL replication (R5-tropic HIV-1BaL; [4]): over 90% | IC50 (R5-tropic HIV-1BaL; Human immunodeficiency virus 1, PBMC, 168 h, HIV-1BaL, activated PBMCs, drug in 0.25% HEC, p24 day 7 post-infection): 1220 nM | reduction in viral replication (pREJO.c/2864 T/F IMC; [4]): 86.8% | reduction in viral replication (pREJO.c/2864 T/F IMC; [5]): 95% | decrease of HSV-2 infections (HSV-2): 51% | LDH release (Abs) (EpiVaginal tissue model; 1 h): 0.207 ± 0.06 Abs | LDH release (Abs) (EpiVaginal tissue model; 4 h): 0.381 ± 0.05 Abs | LDH release (Abs) (EpiVaginal tissue model; 18 h): 0.922 ± 0.2 Abs | LDH release (Abs) (EpiVaginal tissue model; 96 h): 1.498 ± 0.13 Abs | inhibition of HIV-1IIIb replication (X4-tropic HIV-1IIIb; [4]): over 90% | IC50 (X4-tropic HIV-1IIIb; Human immunodeficiency virus 1, PBMC, 168 h, HIV-1IIIb, activated PBMCs, drug in 0.25% HEC, p24 day 7 post-infection): 1080 nM | infection of PBMCs with patient-derived HIV-1 subtype B and C isolates [3]: inhibited viral replication in all three cases
